Test results taken from patent US20030228581A1, “Diagnosis and treatment for late onset neurodegenerative disorder” (priority 2002, published 2003).

How the values were obtained:
[1] = test system: Hq mutant and wild type granule cells; set-up: dose or concentration left out as unconfirmed; conditions: 24 hours
[2] = test system: primary neuronal granule cell cultures from Hq mutant mice; experiment: Glutamate sensitivity of primary granule cell cultures; assay type: cell-based, mouse; set-up: unit of the concentration uncertain
Excerpt: Low doses of glutamate cause neuronal excitotoxicity via NMDA receptors, while higher doses of glutamate trigger intracellular oxidative stress through the release of endogenous peroxides.

[3] = test system: primary neuronal granule cell cultures from Hq mutant mice; conditions: 20 and 50 mM hydrogen peroxide, 5 hours, PI staining
Protocol: To determine if decrease in AIF levels leads to increased sensitivity to exogenous peroxides, primary neuronal granule cell cultures from Hq mutant mice were treated with increasing doses of hydrogen peroxide (0, 5, 20, 50 mM) for 5 hours and then stained with propidium iodide (PI) to identify apoptotic cells.

[4] = test system: mutant and wildtype embryonic cortical cells; conditions: hydrogen peroxide for 24 hours, any peroxide concentration
Protocol: To determine if increased peroxide sensitivity due to loss of wild-type levels of AIF is cell-specific, primary cultures of mutant and wildtype embryonic cortical cells were treated under the identical conditions used for granule cell cultures.

COc1cc([C@@H]2c3cc4c(cc3[C@@H](O[C@@H]3O[C@@H]5CO[C@@H](C)O[C@H]5[C@H](O)[C@H]3O)[C@H]3COC(=O)[C@H]23)OCO4)cc(OC)c1O [etoposide]
cell death, Hq mutant versus wild type granule cells [1]: no significant difference in cell death

N[C@@H](CCC(=O)O)C(=O)O [glutamate]
Hq mutant granule cell death ([2]; higher doses of glutamate (2000 (unit uncertain))): significant increases in Hq mutant granule cell death
cell viability, mutant versus wild type granule cells ([2]; low concentrations of glutamate (100 (unit uncertain))): Cell viability was similar

OO [hydrogen peroxide]
cell death, Hq mutant versus wild-type cultures [3]: Significantly more cell death
viability, mutant versus wild type cortical cells [4]: no difference in viability

CN[C@@H]1C[C@H]2O[C@@](C)([C@@H]1OC)n1c3ccccc3c3c4c(c5c6ccccc6n2c5c31)C(=O)NC4 [staurosporine]
cell death, Hq mutant versus wild type granule cells [1]: no significant difference in cell death
